Laboratory results from ChEMBL document CHEMBL1201862, “PubChem BioAssay data set” (2004).
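Exposure lasted 48 hours, with cells grown in 96-well plates and compounds tested at five concentrations. GI50 marks 50% less growth.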 The source made the active and inactive calls. Cut-off read from the data, not from the text of the source: active = GI50 up to about 1.1 µM and inactive = higher.

Experiments:
Test in all cases: growth of human tumour cells (NCI), 48 h
[1] = system: OVCAR-5
[2] = system: COLO 205
[3] = system: MCF7
[4] = system: OVCAR-4
[5] = system: HOP-62
[6] = system: EKVX
[7] = system: M14
[8] = system: MDA-MB-435
[9] = system: SF-539
[10] = system: TK-10
[11] = system: RXF 393
[12] = system: SK-MEL-28
[13] = system: OVCAR-8
[14] = system: SNB-75
[15] = system: SF-295
[16] = system: T47D
[17] = system: SK-OV-3
[18] = system: SR
[19] = system: Malme-3M

Row | Compound | GI50 [1] | GI50 [2] | GI50 [3] | GI50 [4] | GI50 [5] | GI50 [6] | GI50 [7] | GI50 [8] | GI50 [9] | GI50 [10] | GI50 [11] | GI50 [12] | GI50 [13] | GI50 [14] | GI50 [15] | GI50 [16] | GI50 [17] | GI50 [18] | GI50 [19]
1 | COc1cc([C@@H]2c3cc4c(cc3[C@@H](c3c(O)cc(O)c5c3O[C@H](c3ccc(O)c(O)c3)[C@H](OC(=O)c3cc(O)c(O)c(O)c3)C5)[C@H]3COC(=O)[C@H]23)OCO4)cc(OC)c1OC | 53.3 µM (inactive) | 25.9 µM (inactive) | 3.75 µM (inactive) | 16.6 µM (inactive) | 11.9 µM (inactive) | 45.5 µM (inactive) | 9.93 µM (inactive) | 2.54 µM (inactive) | 4.22 µM (inactive) | > 100 µM (inactive) | 4.67 µM (inactive) | > 50.7 µM (inactive) | 7.1 µM (inactive) | 3.47 µM (inactive) | 3.91 µM (inactive) | > 100 µM (inactive) | 9.46 µM (inactive) | 2.69 µM (inactive) | 
2 | CN(C)CCNc1ccc(NCCN(C)C)c2c1C(=O)c1ncsc1C2=O | 21.8 µM (inactive) | 12.4 µM (inactive) | 7.33 µM (inactive) | 10.2 µM (inactive) | 13.2 µM (inactive) | 12.3 µM (inactive) | 18.2 µM (inactive) | 13.6 µM (inactive) | 12.9 µM (inactive) | 24.8 µM (inactive) | 18.6 µM (inactive) | 15.3 µM (inactive) | 12.5 µM (inactive) | 15.8 µM (inactive) | 12.8 µM (inactive) | > 100 µM (inactive) | 18.8 µM (inactive) | 1.21 µM (inactive) | 
3 | Nc1c(Cl)ncnc1N[C@@H]1C[C@H]1CO | > 100 µM (inactive) | > 100 µM (inactive) | > 100 µM (inactive) | > 100 µM (inactive) | > 100 µM (inactive) | > 100 µM (inactive) | > 100 µM (inactive) | > 100 µM (inactive) | > 100 µM (inactive) | > 100 µM (inactive) | > 100 µM (inactive) | > 100 µM (inactive) | > 100 µM (inactive) | 0.494 µM (active) | > 100 µM (inactive) | > 100 µM (inactive) |  | > 100 µM (inactive) | 
4 | O=C(O)C12C3C4(C(=O)O)C1C1(C(=O)O)C2C3(C(=O)O)C41 (configuration not stated) | > 100 µM (inactive) | > 100 µM (inactive) | > 100 µM (inactive) | > 100 µM (inactive) | > 100 µM (inactive) | > 100 µM (inactive) | > 100 µM (inactive) | > 100 µM (inactive) | > 100 µM (inactive) | > 100 µM (inactive) |  | > 100 µM (inactive) | > 100 µM (inactive) | > 100 µM (inactive) | 4.4 µM (inactive) | > 100 µM (inactive) |  | > 100 µM (inactive) | > 100 µM (inactive)
5 | C=C1C(=O)OC2/C=C(\C)C(O)CC(O)C(C)(O)CC(OC(=O)/C(C)=C/C)C12 (configuration not stated) | > 73.8 µM (inactive) | 57.8 µM (inactive) | 56.8 µM (inactive) | 45.2 µM (inactive) | > 100 µM (inactive) | 43.1 µM (inactive) | 60.1 µM (inactive) | 36.5 µM (inactive) | 42.4 µM (inactive) | > 67.5 µM (inactive) | > 60.1 µM (inactive) | 47.9 µM (inactive) | 32.5 µM (inactive) | 38.2 µM (inactive) | 55.1 µM (inactive) | 65.5 µM (inactive) | 53.5 µM (inactive) |  | 50 µM (inactive)
6 | OC(Cc1ccc2ccccc2n1)(C(F)(F)Cl)C(F)(F)Cl | > 10 µM (inactive) | > 10 µM (inactive) | > 10 µM (inactive) | > 10 µM (inactive) | > 10 µM (inactive) | > 10 µM (inactive) | > 10 µM (inactive) | > 10 µM (inactive) | > 10 µM (inactive) | > 10 µM (inactive) |  | > 10 µM (inactive) | > 10 µM (inactive) | > 10 µM (inactive) | > 10 µM (inactive) | > 10 µM (inactive) | > 10 µM (inactive) | > 10 µM (inactive) | > 10 µM (inactive)
7 | Cc1ccc(Nc2n[nH]c(=S)s2)cc1C | > 100 µM (inactive) | 66.1 µM (inactive) | 90.4 µM (inactive) | 89.9 µM (inactive) | > 100 µM (inactive) | > 100 µM (inactive) | > 100 µM (inactive) | 53.5 µM (inactive) | > 100 µM (inactive) | > 100 µM (inactive) | > 100 µM (inactive) | 57.9 µM (inactive) | > 100 µM (inactive) | > 100 µM (inactive) | 79.6 µM (inactive) | 27.4 µM (inactive) | > 100 µM (inactive) |  | > 100 µM (inactive)
8 | COc1ccc(-c2oc3ccc(C)cc3c(=O)c2O)cc1 | > 100 µM (inactive) | > 100 µM (inactive) | > 100 µM (inactive) | 57.7 µM (inactive) | > 100 µM (inactive) | > 100 µM (inactive) | > 100 µM (inactive) | > 100 µM (inactive) | 43.4 µM (inactive) | 32.1 µM (inactive) | > 100 µM (inactive) | > 100 µM (inactive) | 23.1 µM (inactive) | 76.7 µM (inactive) | > 100 µM (inactive) | > 100 µM (inactive) | > 100 µM (inactive) |  | > 100 µM (inactive)
